Measurements as given in patent US20170240592A1, “GADD45BETA/MKK7 INHIBITOR FOR THE TREATMENT OF A RESISTANT HAEMATOLOGICAL MALIGNANCY” (IMPERIAL INNOVATIONS LIMITED, priority 2014, published 2017).

Columns and labels:
Gadd45β binding to MKK7 = target: T1, Gadd45β binding to MKK7 (Homo sapiens, UniProt O14733); test: ELISA Gadd45β/MKK7 competition assay
T1 construct: Full-length human (h)MKK7 was expressed as a protein fused to an N-terminal GST tag (GST-MKK7); made in house
T1 sequence (O14733 1-419): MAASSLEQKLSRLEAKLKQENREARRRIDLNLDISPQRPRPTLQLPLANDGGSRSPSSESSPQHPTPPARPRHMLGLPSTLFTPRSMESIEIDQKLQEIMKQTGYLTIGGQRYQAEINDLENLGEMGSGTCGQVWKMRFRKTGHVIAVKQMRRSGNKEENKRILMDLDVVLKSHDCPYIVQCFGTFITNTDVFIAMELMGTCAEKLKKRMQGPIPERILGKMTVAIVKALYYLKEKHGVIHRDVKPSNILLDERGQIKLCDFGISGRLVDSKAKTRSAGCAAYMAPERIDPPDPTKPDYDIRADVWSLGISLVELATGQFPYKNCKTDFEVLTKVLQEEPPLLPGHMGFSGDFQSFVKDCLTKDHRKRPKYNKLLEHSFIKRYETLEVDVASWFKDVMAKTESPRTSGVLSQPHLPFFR
Method: (§1) Values express the percentage of live cells present in the treated cultures relative to the live cells present in the respective untreated cultures and denote means±SD ([WM]; n=3). UT, untreated. […] Values express the percentage of inhibition of Gadd45β binding to MKK7 relative to the binding measured in the absence of peptide. […] Co-immunoprecipitations (IP) were performed using an anti-FLAG antibody (a-FLAG); western blots (WB) were developed using an anti-HA or an anti-MKK7 antibody, as shown.
Proteins were purified as described in Tornatore et al., 2008. Individual peptides were synthesised as reported in Sandomenico et al., 2012. […] Peptide identity and purity were determined using liquid chromatography-mass spectrometry (LC-MS). […]
Recombinant proteins were purified as described previously (Tornatore et al., 2008). Briefly, full-length human (h)GADD45β was expressed as a protein fused to a poly-histidine (His6) tag and purified by affinity chromatography using His-Trap columns (GE Healthcare). […] Full-length human (h)MKK7 was expressed as a protein fused to an N-terminal GST tag (GST-MKK7), purified using GST-Trap as above, and then used for ELISA analyses. […] The kinase domain (KD) of hMKK7 (amino acids 101-405) was expressed as a protein fused to an N-terminal His6 tag in E. coli (BL21[DE3] strain) using the pETDuet-1 vector (Novagen). […]

Gadd45β/MKK7 complex = target: T2, Gadd45β/MKK7 complex (Homo sapiens, UniProt O14733); test: co-immunoprecipitation assay; assay type: binding; settings: anti-FLAG immunoprecipitates, HEK-293T lysates
T2 construct: expressed in transfected cells; host or cells: human HEK-293T
T2 sequence (O14733 1-419): T1 sequence (O14733 1-419)
Method: as §1
Co-immunoprecipitation assays were performed as described previously (Papa et al., 2004). Briefly, human HEK-293T cells were seeded at a density of 1.8-2.2×10^6 cells/dish in […] tissue-culture dishes and then transfected with pcDNA-FLAG-hMKK7 and pcDNA-HA-hGADD45β by using the calcium phosphate precipitation method (Papa et al., 2004). 48 hr after transfection, cells were washed with PBS and then lysed in lysis buffer supplemented with protease inhibitors (1 mM phenylmethylsulfonylfluoride, 10 μM chymostatin, 2 μg/mL aprotinin, 2 μg/mL leupeptin; Roche) for 30 min in ice. Cell lysates were cleared by centrifugation at 45,000×g for 40 min and then used for co-immunoprecipitations with anti-FLAG M2 Affinity Gel (Sigma-Aldrich), binding to FLAG-tagged MKK7. Western blots were developed using an anti-HA (binding to HA-hGADD45β) or an anti-MKK7 antibody. […]

thermodynamic solubility = assay type: physicochemical; settings: PBS pH 7.4, at 37° C. for 14 days
Method: In vitro pharmacokinetic assays were performed according to established, in-house protocols and included: plasma stability (human), thermodynamic solubility (PBS pH 7.4, at 37° C. for 14 days), microsomal stability (human), plasma protein binding (PPB; mouse and human), and distribution coefficient (Log D). In vivo pharmacokinetic analyses were also performed at Cyprotex according to established, in-house protocols. Briefly, the peptides were dissolved in PBS and administered by single intravenous injection to CD1 male mice at the dose of 10 mg/kg (25-30 g of total body weight; n=3 mice per time point per compound). Blood samples were collected in heparinized tubes at up to 7 time points after this injection (i.e. 0.08, 0.25, 0.5, 1, 2, 4 and 8 hr), and the plasma concentrations of the test peptide were determined at each time point by LC-MS/MS, using a five-point standard curve covering a peptide concentration range from 3 to 3,000 ng/mL. Standard curves were prepared using blank plasma matrices and treated in the same manner as the test samples. […] Values were calculated from the data of the peptide plasma concentration versus time curves using a non-compartmental model analysis, as described elsewhere (Groulx, 2006; Landaw and Di Stefano 3rd, 1982). […]

[1] = test system: drug-resistant multiple myeloma cell lines; test: [3H]thymidine incorporation assay, sensitive and drug-resistant multiple myeloma cell lines; assay type: cell-based, human; settings: 6-day treatment; MM1.R, AMO-1a, MM1/R10R, U266/R10R
Excerpt: Matching pairs of sensitive (parental) and drug-resistant multiple myeloma cell lines were as follows: MM1.S (parental) and MM1.R (dexamethasone-resistant); AMO-1 (parental) and AMO-1a (bortezomib-resistant); MM1.S (parental) and MM1/R10R (lenalidomide-resistant); U266 (parental) and U266/R10R (lenalidomide-resistant). […] For clarity purposes, the same data for the parental MM1.S MM multiple myeloma cell line are shown as control for the dexamethasone-resistant (MM1.R) MM multiple myeloma cell line and the lenalidomide-resistant (MM1/R10R) MM multiple myeloma cell line.

Q: Which Gadd45β/MKK7 inhibitor activity (Gadd45β binding to MKK7) does the source give for `CC(=O)N[C@H](Cc1ccc(O)cc1)C(=O)N[C@H](CCCNC(=N)N)C(=O)N[C@H](Cc1ccccc1)C(N)=O` [DTP3, Acetyl-Tyr-Arg-Phe-NH2] here?
A: sub-nM

Q: And the stability in vitro (Gadd45β binding to MKK7; before and after 48-hr pre-incubation with human serum at 37° C.)?
A: high stability in vitro

Q: What about the “disruption of the Gadd45β/MKK7 complex” value (Gadd45β/MKK7 complex) of the same compound?
A: disruption of the Gadd45β/MKK7 complex

Q: And the aqueous solubility (thermodynamic solubility)?
A: high aqueous solubility

Q: And the “efficacy in multiple myeloma cell lines resistant to dexamethasone, bortezomib and lenalidomide” value [1]?
A: retained full therapeutic efficacy
